Results as given in US20090012053A1, “Use of LXR agonists for the treatment of osteoarthritis” (Wyeth, priority 2006, published 2009).

Tested on: aggrecanase
Experiment: Western blot of aggrecanase-generated aggrecan neoepitopes (BC3, AGEG antibodies) in culture medium of human OA cartilage explants
Assay type: cell-based
Description: FIG. 4A is a Western blot showing aggrecanase-generated aggrecan neoepitopes using BC-3 antibody, which recognizes the N-terminus on aggrecanase-generated aggrecan catabolites. Cartilage explants from two human donors with end stage OA (after joint replacement surgery) were used. Donor #259 is a patient, and donor #261 is a patient. Lanes 1, 5: vehicle. Lanes 2, 6: TO901317 (2 μM). Lanes 3, 7: IL-1β+oncostatin M (OSM) (10 ng/ml each). Lanes 4, 8: IL-1β+OSM+TO901317. FIG. 4B is a Western blot showing aggrecanase-generated aggrecan neoepitopes using AGEG antibody, which recognizes a different epitope on aggrecanase-generated aggrecan catabolites. Lanes 1, 5: vehicle. Lanes 2, 6: TO901317 (2 μM). Lanes 3, 7: IL-1β+OSM (10 ng/ml each). Lanes 4, 8: IL-1β+OSM+TO901317. Fresh cartilage from human OA donors was cut into pieces (˜10 mg/piece, ˜2×2×2 mm). The cartilage explants were randomized into 24 well plates (˜250 mg wet weight/well). Three wells of explants were included for each treatment group. The explants were cultured in 1 ml DMEM/F-12 with 10% FBS for 3 days, then the complete medium was replaced with serum-free medium. Twelve hours later, the medium was removed and fresh serum-free medium (1 ml) was added, followed by LXR agonist T0901317 treatment (2 μM). IL1β/Oncostatin M (10 ng/ml each) were added 8 hours later. The explants were then cultured in the presence or absence of LXR agonist T0901317 and IL1β/Oncostatin M for additional 20 hours. 180 μl of pooled culture medium from each treatment group was deglycosylated with chondroitinase ABC, keratanase, keratanase II in the presence of 50 mM EDTA at 37° C. for 3 hrs. The samples were then concentrated and separated in a 4-12% SDS-PAGE gel. Western analysis was performed using either mouse BC3 neoepitope antibody (1:1500), or rabbit anti-AGEG antibody (1:1000) as the primary antibody, and anti-mouse or anti-rabbit IgG antibody conjugated with […] (1:5000) as the secondary antibody. […] Treatment with T0901317 blocked the induction of BC3 and AEEG release by cytokines. In the experiment using donor #261, BC3- and AEGE-containing aggrecan fragments were released into the culture medium from untreated cartilage explants.

O=S(=O)(c1ccccc1)N(CC(F)(F)F)c1ccc(C(O)(C(F)(F)F)C(F)(F)F)cc1 [Formula T0901317, N-(2,2,2-trifluoroethyl)-N-{4-[2,2,2-trifluoro-1-hydroxy-1-(trifluoromethyl)ethyl]phenyl}benzene sulfonamide]
cytokine-induced release of BC3 containing aggrecan fragments into the culture medium (donor #259, 2 μM, IL1β/Oncostatin M 10 ng/ml each, FIG. 4A): blocked | cytokine-induced release of AGEG containing aggrecan fragments into the culture medium (donor #259, 2 μM, IL1β/Oncostatin M 10 ng/ml each, FIG. 4B): blocked | cytokine-induced release of AGEG-containing fragment from the explants (donor #261, 2 μM, IL1β/Oncostatin M 10 ng/ml each, FIG. 4B): it was blocked | amount of BC3-containing aggrecan fragments released into the culture medium without cytokines (donor #261, 2 μM, no cytokine, FIG. 4A): reduced the amount of these fragments | amount of AGEG-containing aggrecan fragments released into the culture medium without cytokines (donor #261, 2 μM, no cytokine, FIG. 4B): reduced the amount of these fragments
